Here are results for 2 compounds from patent publication US20170151226A1, “Treatment of Breast Cancer with Liposomal Irinotecan” (priority 2014, published 2017).

One data set relates to TNBC LM2-4-luc cells. Kind of data set: TNBC LM2-4 mouse model of spontaneous metastasis. It is filed as in vivo, SCID mice. Particulars: nal-IRI 10 mg/kg salt, nonliposomal irinotecan 50 mg/kg salt, IV every 7 days. The source says: 42 female SCID mice were inoculated with TNBC LM2-4-luc cells in their lower right inguinal mammary fat pad. […] Post primary tumor resection, bioluminescence imaging (BLI), (BLI, Xenogen, Perkin Elmer) was used to monitor metastasis formulation. […] Animals were monitored 2-3 times per week using BLI and at the study endpoint using a 1T MRI (M3, Aspect Imaging).

The conditions of data set [1]: 5-day regimen; cited from earlier work.

For `CCc1c2c(nc3ccc(OC(=O)N4CCC(N5CCCCC5)CC4)cc13)-c1cc3c(c(=O)n1C2)COC(=O)[C@]3(O)CC` [irinotecan], the “Metastatic burden, median bioluminescence flux” value in the data set on TNBC LM2-4-luc cells (day 12) was 2.1×10^9. Also, the Median survival in the data set with TNBC LM2-4-luc cells was found to be 14 days. For `C[C@@H](O)[C@@H]1NC(=O)[C@H](CCCCN)NC(=O)[C@@H](Cc2c[nH]c3ccccc23)NC(=O)[C@H](Cc2ccccc2)NC(=O)[C@@H](NC(=O)[C@H](N)Cc2ccccc2)CSSC[C@@H](C(=O)N[C@H](CO)[C@@H](C)O)NC1=O` [octreotide], the Maximum tolerated dose in data set [1] is 2000 micrograms three times daily.
